How the values were obtained:
Type in all cases: in vivo, rat
[1] = tested on: brain superoxide dismutase (SOD); assay: Brain superoxide dismutase (SOD) activities in normal and NO deficient rats
[2] = tested on: hippocampal CA1 pyramidal cells; assay: Neuron viability in hippocampal CA1 of normal and nitric oxide (NO) deficient rats; conditions: for viable pyramidal cells in CA1: nitric oxide (NO) deficient rats, 12-week L-NAME administration, FIG. 1a
Protocol: (§1) Neuroprotective activities of polyphenol-rich palm leaves extract and captopril were evaluated in normal and nitric oxide (NO) deficient rats by assessing neuron viability of three subfields in the hippocampus; CA1. CA3 and DG. […] CA3 and DG of the hippocampus, and that co-administration with palm leaves extract attenuated this effect more effectively than with captopril. The pronounced loss of neurons with L-NAME administration caused the impairment in acquisition, but not retention, of spatial memory in the radial-arm maze task and the Morris water maze task. The neuroprotective effect of palm leaves extract was not significant in normal adult rats where loss of neurons have not occurred.

[3] = tested on: hippocampal CA3 pyramidal cells; assay: Neuron viability in hippocampal CA3 of normal and nitric oxide (NO) deficient rats; conditions: nitric oxide (NO) deficient rats, 12-week L-NAME administration; FIG. 1b
Protocol: as §1, with “DG. […] No significant difference in viability was observed between all 3 groups of normal rats.” for “DG.”

[4] = tested on: hippocampal dentate gyrus (DG) granule cells; assay: Neuron viability in hippocampal dentate gyrus of normal and nitric oxide (NO) deficient rats; conditions: nitric oxide (NO) deficient rats, 12-week L-NAME administration; FIG. 1c
Protocol: as §1, with “DG. […] The viability values of all 3 normal groups were similar.” for “DG.”

[5] = tested on: brain malondialdehyde (MDA); assay: Brain malondialdehyde (MDA) concentrations in normal and NO deficient rats; conditions: normal rats, FIG. 2d
[6] = tested on: brain catalase; assay: Brain catalase in normal and NO deficient rats; conditions: normal rats, FIG. 2c

Row | Structure (SMILES) | superoxide dismutase (SOD) activity ([1]; L-NAME administration alone, FIG. 2a) | viable pyramidal cells in CA1 [2] | CA3 pyramidal cells viability [3] | increase of superoxide dismutase (SOD) activities compared with L-NAME treated animals ([1]; nitric oxide (NO) deficient rats, FIG. 2a) | superoxide dismutase (SOD) activity ([1]; normal rats) | viable pyramidal cell count in CA1 compared to control ([2]; normal rats) | viable granule cells in dentate gyrus (DG) / neurons protected from degeneration [4] | malondialdehyde (MDA) level [5] | catalase activity compared to control [6]
1 | COC(=O)[C@@H](N)CCCNC(=N)N[N+](=O)[O-] [L-NAME] | decreased | 40% | 15% | – | – | – | – | – | –
2 | C[C@H](CS)C(=O)N1CCC[C@H]1C(=O)O [captopril] | – | partial neuroprotection | 35% | 51% | maintaining | no significant change | 34% | maintaining | depleted significantly

From patent US20110311657A1, “Use of a Neuroprotective Extract and Pharmaceutical Preparation Thereof” (Universiti Putra Malaysia, priority 2009, published 2011)
